From PubChem BioAssay AID463229 (Broad Institute, 2010)
Where “and” joins values, the source holds several entries; their conditions need not be identical. Equal values may be shown once.

Test system: INS-1E rat beta cells, no cytokines, CellTiter-Glo ATP, 48 h
Test: cytokine-free beta-cell viability effect – INS-1E rat cells, ATP luminescence, cherry pick, counter-screen for beta-cell apoptosis protection project, dose response (AID 463229)

SMILES | AC50
COc1ccc(Sc2nc(-c3ccccn3)ncc2OC)cc1 | 19.3 µM
CCCOc1ccc(CSc2nc3ccccc3[nH]2)cc1 | 5.41 µM
O=S(=O)(/C(=C/c1ccc(C(F)(F)F)cc1)c1nc2ccccc2[nH]1)c1ccccc1 | 5.45 µM
O=C(Cc1ccc(Cl)cc1)c1c[nH]c(C(=O)NCc2cccnc2)c1 | 0.665 µM
O=C(c1cc(COc2ccc3ncccc3c2)on1)N1CCCCCC1 | 8.02 µM
O=C(N/N=C/c1cnc(N2CCCCC2)s1)c1ccc(C(F)(F)F)cc1 | 6.66 µM
CC(=O)C1=NN(c2ccccc2)C(c2cccs2)N1c1ccc(N(C)C)cc1 (configuration not stated) | 3.56 µM
Cc1ccc(/C=N/NC(=O)Cc2ccc(Cl)cc2)c(O)c1 | 12.3 µM
CC(C)(C)c1ccc(/C=C(\c2nc3ccccc3[nH]2)S(=O)(=O)c2ccccc2)cc1 | 7.37 µM
CCOc1ccccc1NC(=O)C(=O)N/N=C/c1cc(Br)ccc1O | 4.36 µM
c1ccc2c(c1)ncn2CCCOc1ccc2c(c1)CCC2 | 7.74 µM
O=C(Nc1ccc([N+](=O)[O-])cc1)Nc1ccc(Cl)cc1F | 6.71 µM
COCCNc1nc2c(c(=O)n(C)c(=O)n2C)n1Cc1cccc(C(F)(F)F)c1 | 12.1 µM
CCCCCCCCCCOC(=O)Cn1c(COc2ccccc2C)[n+](C)c2ccccc21 | 3.22 µM
Cn1nc(CC(=O)Nc2ccc3c(c2)OCCO3)c2ccccc2c1=O | 5.63 µM
O=C1/C(=N\S(=O)(=O)c2cccs2)C([n+]2cccc(Cc3ccccc3)c2)=C([O-])c2ccccc21 | 7.28 µM
CC(C)(C)c1ccc(C(=O)Nc2ccc(C(=O)NCc3cccnc3)cc2)cc1 | < 0.195 µM
C/C(=N\NC(=O)C(C)Oc1ccc([N+](=O)[O-])cc1)c1ccccn1 (configuration not stated) | 4.2 µM
O=C(CCC(=O)Nc1ccc(Br)cc1)N/N=C/c1ccccc1O | 14.6 µM
Cc1ccccc1CNc1ccc(C(CC(N)=O)NC(=O)c2ccc(Br)cc2)cc1[N+](=O)[O-] (configuration not stated) | 15.7 µM
Cn1ncc2c(N3CCN(c4ccc(Cl)c(Cl)c4)CC3)ncnc21 | 3.37 µM

SMILES | AC50
O=[N+]([O-])/C=C/c1ccc2c(ccn2Cc2ccccc2)c1 | 7.72 µM
O=C(C1=C[C@@H](c2ccc(C(F)(F)F)cc2)C[C@@H](OCCCCO)O1)N1CCN(Cc2ccccc2)CC1 | 12.6 µM
CC(C)(C)c1cc(C=C(C#N)C#N)cc(C(C)(C)C)c1O | 0.984 µM
COC(=O)C1=C(c2ccc(OCc3ccccc3)cc2)C[C@@H]2CC[C@H]1N2C(=O)NC1CCN(Cc2ccccc2)CC1 | 7.55 µM
Cc1cc(C)n(-c2nc(NCCN(C)C)c3c4c(sc3n2)CCCC4)n1 | 9.54 µM
CC1(C)C(C=C(Cl)Cl)C1C(=O)Nc1ccc([N+](=O)[O-])cc1 (configuration not stated) | 7.7 µM
Cc1ccc(C)c(-c2csc(NC(=O)C3=COCCO3)n2)c1 | 7.67 µM
COc1ccc(OC)c2sc(N(CCCN(C)C)C(=O)c3ccc(S(=O)(=O)N4CCc5ccccc5C4)cc3)nc12 | 2.23 µM
O=C(N/N=C/c1sc(N2CCOCC2)nc1-c1ccccc1)c1cccc(S(=O)(=O)N2CCCC2)c1 | 2.25 µM
O=C(CNc1ccccc1)N/N=C/c1c(O)ccc2ccccc12 | 15.8 µM
NC(=NCCCCCCN=C(N)/N=C(\N)Nc1ccc(Cl)cc1)/N=C(\N)Nc1ccc(Cl)cc1 | 5 µM and 5.71 µM
O=c1c2ccccc2nc(COc2ccccc2)n1/N=C/c1cc([N+](=O)[O-])ccc1O | 14.7 µM
Cc1cc(Br)cc(/C=N/NC(=O)c2ccc3c(c2)OCO3)c1O | 7.43 µM
C=C1C(=O)O[C@H]2C[C@@H](C)[C@@H]3C=CC(=O)[C@@]3(C)C[C@H]12 | 7.64 µM
O=C1C=C(Nc2ccccc2O)c2ccccc2C1=O | 8.04 µM
COC(=O)C1CCCCN1C(=O)c1cc(COc2cccc3cnccc23)on1 (configuration not stated) | 7.11 µM
CCN(CC)c1ccc(/C=N/NC(=O)c2cccc(S(=O)(=O)Nc3ccccc3OC)c2)c(O)c1 | 1.62 µM
C=C(C(=O)c1ccccc1)C(C)C(=C)C(=O)c1ccccc1 | 7.84 µM
C/C(=N\NC(=O)c1ccc(NS(=O)(=O)c2cccs2)cc1)c1ccccn1 | 13.3 µM
COc1ccc(C2=NNC(=Nc3cc(S(=O)(=O)N(C)C)ccc3C)SC2)c(OC)c1 | 3.06 µM
CC(C)(C)C(=O)NC(=S)NNC(=O)c1ccc(-c2ccccc2)cc1 | 5.71 µM
